Experimental data taken from patent US7342122B2, “Bisphosphonate complexes” (priority 2003, dated 2008).

Assays:
[1] = system: DU-145; assay: Cell growth inhibition, prostatic cancer DU-145; type: cell-based, human; conditions: DU-145, prostatic cancer
Protocol: (§1) KB cells were purchased from Human Science Research Resource Bank (Osaka, Japan). The cells were cultured in Earle's MEM (GIBCO BRL) containing 10% FBS (Bio Whittaker) at 37° C. under 5% CO2. After 24 hours the test compounds were added to the cells at the indicated concentrations. 72 hours later the cells were stained with tripan blue and counted manually. IC50 is calculated as the concentration (aqueous solution) of complex required to inhibit growth of cells by 50%.
(§2) In a similar fashion a representative number of examples of compounds of the invention were tested for their ability to inhibit the growth/proliferation of cell types representing a number of different cancers. The results are provided in Tables 4-13, below, which provide the Inhibition Constants (IC50, μM) for each compound across various cell lines.

[2] = system: PC-3; assay: Cell growth inhibition, prostatic cancer PC-3; type: cell-based; conditions: PC-3, prostatic cancer
Protocol: as §1, §2

[3] = system: MKN1; assay: Cell growth inhibition, human stomach cancer MKN1; type: cell-based
Protocol: as §1, §2

[4] = system: DMS114; assay: Cell growth inhibition, lung cancer cell line DMS114; type: cell-based
Protocol: as §1, §2

[5] = system: BSY-1; assay: Cell growth inhibition, breast cancer cell line BSY-1; type: cell-based; conditions: BSY-1, breast cancer cell line
Protocol: as §1, §2

[6] = system: OVCAR-4; assay: Cell growth inhibition, ovarian cancer cell line OVCAR-4; type: cell-based; conditions: OVCAR-4, ovarian cancer cell line
Protocol: as §1, §2

[7] = system: MCF-7; assay: Cell growth inhibition, breast cancer cell line MCF-7; type: cell-based; conditions: MCF-7, breast cancer cell line
Protocol: as §1, §2

[8] = system: SF-295; assay: Cell growth inhibition, brain cancer cell line SF-295; type: cell-based; conditions: SF-295, brain cancer cell line
Protocol: as §1, §2

[9] = system: ACHN; assay: Cell growth inhibition, renal cancer ACHN; type: cell-based
Protocol: as §1, §2

[10] = system: LOX-IMVI; assay: Cell growth inhibition, melanoma cell line LOX-IMVI; type: cell-based
Protocol: as §1, §2

[11] = system: OVCAR-3; assay: Cell growth inhibition, ovarian cancer cell line OVCAR-3; type: cell-based; conditions: OVCAR-3, ovarian cancer cell line
Protocol: as §1, §2

[12] = system: SNB-75; assay: Cell growth inhibition, brain cancer cell line SNB-75; type: cell-based; conditions: SNB-75, brain cancer cell line
Protocol: as §1, §2

[13] = system: NCI-H522; assay: Cell growth inhibition, lung cancer cell line NCI-H522; type: cell-based
Protocol: as §1, §2

[14] = system: SF-268; assay: Cell growth inhibition, brain cancer cell line SF-268; type: cell-based; conditions: SF-268, brain cancer cell line
Protocol: as §1, §2

[15] = system: RXF-631L; assay: Cell growth inhibition, renal cancer RXF-631L; type: cell-based
Protocol: as §1, §2

[16] = system: SNB-78; assay: Cell growth inhibition, brain cancer cell line SNB-78; type: cell-based; conditions: SNB-78, brain cancer cell line
Protocol: as §1, §2

[17] = system: MDA-MB-231; assay: Cell growth inhibition, breast cancer cell line MDA-MB-231; type: cell-based; conditions: MDA-MB-231, breast cancer cell line
Protocol: as §1, §2

[18] = system: NCI-H23; assay: Cell growth inhibition, lung cancer cell line NCI-H23; type: cell-based
Protocol: as §1, §2

[19] = system: DMS273; assay: Cell growth inhibition, lung cancer cell line DMS273; type: cell-based
Protocol: as §1, §2

[20] = system: HBC-4; assay: Cell growth inhibition, breast cancer cell line HBC-4; type: cell-based; conditions: HBC-4, breast cancer cell line
Protocol: as §1, §2

[21] = system: NCI-H460; assay: Cell growth inhibition, lung cancer cell line NCI-H460; type: cell-based
Protocol: as §1, §2

[22] = system: all cell types (cancer cell lines of Tables 4-12); assay: Cell growth inhibition, mean over all cell types of the panel; type: cell-based; conditions: mean over all cell lines of Tables 4-12
Protocol: as §1, §2

[23] = system: MKN45; assay: Cell growth inhibition, human stomach cancer MKN45; type: cell-based
Protocol: as §1, §2

[24] = system: SK-OV-3; assay: Cell growth inhibition, ovarian cancer cell line SK-OV-3; type: cell-based; conditions: SK-OV-3, ovarian cancer cell line
Protocol: as §1, §2

[25] = system: HBC-5; assay: Cell growth inhibition, breast cancer cell line HBC-5; type: cell-based; conditions: HBC-5, breast cancer cell line
Protocol: as §1, §2

[26] = system: HCT-116; assay: Cell growth inhibition, colon cancer cell line HCT-116; type: cell-based; conditions: HCT-116, colon cancer cell line
Protocol: as §1, §2

[27] = system: KB cells; assay: In vitro assay, cell growth inhibition (KB cells); type: cell-based; conditions: 72 hours; for IC50: concentration to inhibit growth of cells by 50%
Protocol: as §1

[28] = system: OVCAR-5; assay: Cell growth inhibition, ovarian cancer cell line OVCAR-5; type: cell-based; conditions: OVCAR-5, ovarian cancer cell line
Protocol: as §1, §2

[29] = system: HT-29; assay: Cell growth inhibition, colon cancer cell line HT-29; type: cell-based; conditions: HT-29, colon cancer cell line
Protocol: as §1, §2

[30] = system: MKN7; assay: Cell growth inhibition, human stomach cancer MKN7; type: cell-based
Protocol: as §1, §2

[31] = system: SF-539; assay: Cell growth inhibition, brain cancer cell line SF-539; type: cell-based; conditions: SF-539, brain cancer cell line
Protocol: as §1, §2

[32] = system: St-4; assay: Cell growth inhibition, human stomach cancer St-4; type: cell-based; conditions: St-4, human stomach cancer
Protocol: as §1, §2

[33] = system: MKN28; assay: Cell growth inhibition, human stomach cancer MKN28; type: cell-based
Protocol: as §1, §2

[34] = system: A549; assay: Cell growth inhibition, lung cancer cell line A549; type: cell-based
Protocol: as §1, §2

[35] = system: NCI-H226; assay: Cell growth inhibition, lung cancer cell line NCI-H226; type: cell-based
Protocol: as §1, §2

[36] = system: OVCAR-8; assay: Cell growth inhibition, ovarian cancer cell line OVCAR-8; type: cell-based; conditions: OVCAR-8, ovarian cancer cell line
Protocol: as §1, §2

[37] = system: MKN74; assay: Cell growth inhibition, human stomach cancer MKN74; type: cell-based
Protocol: as §1, §2

[38] = system: KM-12; assay: Cell growth inhibition, colon cancer cell line KM-12; type: cell-based; conditions: KM-12, colon cancer cell line
Protocol: as §1, §2

[39] = system: U251; assay: Cell growth inhibition, brain cancer cell line U251; type: cell-based
Protocol: as §1, §2

[40] = system: HCC2998; assay: Cell growth inhibition, colon cancer cell line HCC2998; type: cell-based
Protocol: as §1, §2

N.N.O.O.O.O.O.O.O.O=P([O-])([O-])OC1C(OP(=O)([O-])[O-])C(OP(=O)([O-])[O-])C(OP(=O)([O-])[O][Pt+])C(OP(=O)([O-])[O-])C1OP(=O)([O-])[O-].[Na+].[Na+].[Na+].[Na+].[Na+].[Na+].[Na+].[Na+].[Na+].[Na+] (centres unmarked) [Example 9, Pt(NH3)—IP6 Pt(NH3)2.IP6.10Na.7H2O]
log10 IC50 (M) [1]: -4.66 | log10 IC50 (M) [2]: -4.04 | log10 IC50 (M) [3]: -4.42 | log10 IC50 (M) [4]: -4.72 | log10 IC50 (M) [5]: -4.71 | log10 IC50 (M) [6]: -4.42 | log10 IC50 (M) [7]: -4.19 | log10 IC50 (M) [8]: -4.46 | log10 IC50 (M) [9]: -5.37 | log10 IC50 (M) [10]: -4.08 | log10 IC50 (M) [11]: -4.82 | log10 IC50 (M) [12]: -5.51 | log10 IC50 (M) [13]: -5.69 | log10 IC50 (M) [14]: -4.26 | log10 IC50 (M) [15]: -4.37 | log10 IC50 (M) [16]: -4.29 | log10 IC50 (M) [17]: -4.06 | log10 IC50 (M) [18]: -4.7 | log10 IC50 (M) [19]: -4.29 | log10 IC50 (M) [20]: -4.27 | log10 IC50 (M) [21]: -4.46 | log10 IC50 (M) [22]: -4.38 | log10 IC50 (M) [23]: -4.14 | log10 IC50 (M) [24]: -5.2 | log10 IC50 (M) [25]: -5.16 | log10 IC50 (M) [26]: -4.41

[Cl-].[Cl-].c1cc[n+]2c(c1)-c1cccc[n+]1[Pt-2]21[NH2+]CC[NH+]1Cc1c2ccccc2cc2ccccc12 [Example 4, [Pt(bpy)(Aten)]Cl2]
log10 IC50 (M) [1]: -4.33 | log10 IC50 (M) [2]: -4.22 | log10 IC50 (M) [4]: -4.89 | KB cells remaining/growth in percent (Table 2, untitled) ([27]; 1 μg/ml): 93.8% | KB cells remaining/growth in percent (Table 2, untitled) ([27]; 3 μg/mL): 81.4% | KB cells remaining/growth in percent (Table 2, untitled) ([27]; 10 μg/mL): 75.3% | KB cells remaining/growth in percent (Table 2, untitled) ([27]; 30 μg/mL): 73.2% | KB cells remaining/growth in percent (Table 2, untitled) ([27]; 100 μg/mL): 32.5% | IC50 [27]: 97 µM | log10 IC50 (M) [5]: -4.89 | log10 IC50 (M) [28]: -4.79 | log10 IC50 (M) [6]: -4.19 | log10 IC50 (M) [7]: -4.23 | log10 IC50 (M) [8]: -4.9 | log10 IC50 (M) [9]: -4.2 | log10 IC50 (M) [10]: -4.46 | log10 IC50 (M) [11]: -4.13 | log10 IC50 (M) [29]: -4.57 | log10 IC50 (M) [12]: -4.77 | log10 IC50 (M) [14]: -4.83 | log10 IC50 (M) [30]: -4.45 | log10 IC50 (M) [15]: -4.89 | log10 IC50 (M) [16]: -4.56 | log10 IC50 (M) [31]: -4.82 | log10 IC50 (M) [17]: -4.5 | log10 IC50 (M) [32]: -4.74 | log10 IC50 (M) [18]: -4.18 | log10 IC50 (M) [33]: -4.34 | log10 IC50 (M) [34]: -4.69 | log10 IC50 (M) [19]: -4.85 | log10 IC50 (M) [35]: -4.83 | log10 IC50 (M) [36]: -4.37 | log10 IC50 (M) [37]: -4.75 | log10 IC50 (M) [20]: -4.14 | log10 IC50 (M) [38]: -4.77 | log10 IC50 (M) [21]: -5.23 | log10 IC50 (M) [22]: -4.54 | log10 IC50 (M) [39]: -4.84 | log10 IC50 (M) [23]: -4.68 | log10 IC50 (M) [24]: -4.77 | log10 IC50 (M) [40]: -4.81 | log10 IC50 (M) [25]: -4.12 | log10 IC50 (M) [26]: -4.37

cis-Pt(NH3)2Cl2
KB cells remaining/growth in percent (Table 2, untitled) ([27]; 1 μg/ml): 17.0% | KB cells remaining/growth in percent (Table 2, untitled) ([27]; 3 μg/mL): 13.4% | KB cells remaining/growth in percent (Table 1, untitled) ([27]; 5 μM): 28.20% | KB cells remaining/growth in percent (Table 2, untitled) ([27]; 10 μg/mL): 3.0% | KB cells remaining/growth in percent (Table 1, untitled) ([27]; 15 μM): 13.80% | KB cells remaining/growth in percent (Table 2, untitled) ([27]; 30 μg/mL): 2.2% | KB cells remaining/growth in percent (Table 1, untitled) ([27]; 50 μM): 6.78% | KB cells remaining/growth in percent (Table 2, untitled) ([27]; 100 μg/mL): 1.6% | KB cells remaining/growth in percent (Table 1, untitled) ([27]; 150 μM): 4.34% | KB cells remaining/growth in percent (Table 1, untitled) ([27]; 500 μM): 3.52% | IC50 [27]: 2.75 µM
